Literature values, collected in patent publication US20180055813A1, “COMPOSITIONS AND METHODS FOR TREATING ATRIAL FIBRILLATION” (Edge Therapeutics, Inc., priority 2016, published 2018).
Like-named read-outs stand apart in the source and are kept apart here. Values belong to the molecule of their own block, whether it stands above or below them.

Tests used:
[1] = system: high-plateau action potentials
[2] = for incidence of postoperative AF: AFIST I, patients >60 years
[3] = system: voltage-dependent sodium channels; settings: relative to phenytoin
[4] = phase III clinical trials, compared with placebo
[5] = system: K+ and Na+ currents, and L, P/Q and T-type calcium currents
N-type calcium current = N-type calcium current (Homo sapiens, UniProt Q00975); settings: at 300 nM to 500 nM
Sequence of N-type calcium current (Q00975 whole entry): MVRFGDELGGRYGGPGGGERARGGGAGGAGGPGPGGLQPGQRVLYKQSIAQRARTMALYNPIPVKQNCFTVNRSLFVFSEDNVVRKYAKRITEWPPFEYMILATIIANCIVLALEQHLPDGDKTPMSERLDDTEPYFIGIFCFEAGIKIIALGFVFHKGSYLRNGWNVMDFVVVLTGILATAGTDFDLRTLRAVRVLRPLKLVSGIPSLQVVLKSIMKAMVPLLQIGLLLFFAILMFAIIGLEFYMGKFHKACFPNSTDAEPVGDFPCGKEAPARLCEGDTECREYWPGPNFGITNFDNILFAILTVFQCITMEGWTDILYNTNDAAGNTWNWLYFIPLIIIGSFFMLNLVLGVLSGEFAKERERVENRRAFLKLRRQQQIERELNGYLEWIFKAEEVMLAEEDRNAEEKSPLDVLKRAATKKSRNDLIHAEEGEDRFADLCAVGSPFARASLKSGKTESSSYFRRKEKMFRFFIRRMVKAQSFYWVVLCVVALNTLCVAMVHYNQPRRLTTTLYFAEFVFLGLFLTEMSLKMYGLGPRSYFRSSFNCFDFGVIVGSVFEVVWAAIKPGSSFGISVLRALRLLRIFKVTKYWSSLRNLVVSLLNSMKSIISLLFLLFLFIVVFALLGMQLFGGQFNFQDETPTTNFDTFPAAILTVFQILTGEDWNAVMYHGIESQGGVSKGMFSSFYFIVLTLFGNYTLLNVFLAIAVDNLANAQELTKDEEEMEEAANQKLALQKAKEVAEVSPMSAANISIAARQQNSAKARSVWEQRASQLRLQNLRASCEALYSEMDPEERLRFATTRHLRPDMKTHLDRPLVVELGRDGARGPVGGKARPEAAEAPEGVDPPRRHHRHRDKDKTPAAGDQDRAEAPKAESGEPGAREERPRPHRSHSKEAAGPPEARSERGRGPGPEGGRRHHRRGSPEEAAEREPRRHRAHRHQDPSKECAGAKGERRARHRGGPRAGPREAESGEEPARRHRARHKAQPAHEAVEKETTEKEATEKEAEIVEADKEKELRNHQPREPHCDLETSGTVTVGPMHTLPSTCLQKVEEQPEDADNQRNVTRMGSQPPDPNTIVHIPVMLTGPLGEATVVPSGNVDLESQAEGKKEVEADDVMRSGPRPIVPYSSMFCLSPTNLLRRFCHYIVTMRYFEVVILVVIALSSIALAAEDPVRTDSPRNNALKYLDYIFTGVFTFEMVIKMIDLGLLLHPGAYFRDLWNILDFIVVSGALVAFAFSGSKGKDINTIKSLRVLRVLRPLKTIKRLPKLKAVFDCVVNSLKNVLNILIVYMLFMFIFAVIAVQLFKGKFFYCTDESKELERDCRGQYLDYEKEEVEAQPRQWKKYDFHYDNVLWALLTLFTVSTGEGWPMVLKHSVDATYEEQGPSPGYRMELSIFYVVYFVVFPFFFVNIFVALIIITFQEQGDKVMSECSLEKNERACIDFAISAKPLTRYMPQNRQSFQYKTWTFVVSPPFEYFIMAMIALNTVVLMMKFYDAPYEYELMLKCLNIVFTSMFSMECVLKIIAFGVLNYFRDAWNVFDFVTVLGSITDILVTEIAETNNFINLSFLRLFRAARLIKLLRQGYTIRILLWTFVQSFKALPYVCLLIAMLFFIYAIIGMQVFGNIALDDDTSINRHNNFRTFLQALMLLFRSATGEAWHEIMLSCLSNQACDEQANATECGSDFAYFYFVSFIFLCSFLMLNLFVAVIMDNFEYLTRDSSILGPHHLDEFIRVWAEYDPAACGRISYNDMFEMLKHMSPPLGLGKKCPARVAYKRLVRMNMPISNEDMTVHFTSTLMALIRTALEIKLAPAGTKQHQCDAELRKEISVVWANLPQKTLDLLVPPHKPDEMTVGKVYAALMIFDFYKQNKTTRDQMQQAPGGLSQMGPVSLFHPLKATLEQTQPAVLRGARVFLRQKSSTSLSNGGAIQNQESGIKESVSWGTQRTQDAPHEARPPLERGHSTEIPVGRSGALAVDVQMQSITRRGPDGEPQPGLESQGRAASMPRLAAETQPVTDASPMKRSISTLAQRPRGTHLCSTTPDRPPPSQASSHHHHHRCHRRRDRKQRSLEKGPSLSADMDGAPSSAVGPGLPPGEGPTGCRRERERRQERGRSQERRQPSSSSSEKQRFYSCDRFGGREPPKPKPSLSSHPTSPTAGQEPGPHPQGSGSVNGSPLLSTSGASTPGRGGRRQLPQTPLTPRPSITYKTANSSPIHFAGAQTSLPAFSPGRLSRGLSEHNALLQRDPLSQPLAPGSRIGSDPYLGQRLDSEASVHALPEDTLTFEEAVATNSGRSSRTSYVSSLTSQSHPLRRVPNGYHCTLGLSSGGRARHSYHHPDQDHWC

Molecule: Cc1oc2ccccc2c1Cc1cc(I)c(OCC(=O)O)c(I)c1 [KB130015, 2-methyl-3-(3,5-diiodo-4-carboxymethoxybenzyl)benzofuran]
QT lengthening / prolongation of high-plateau action potentials [1]: devoid of QT lengthening effects

Molecule: CCCCc1oc2ccccc2c1C(=O)c1cc(I)c(OCCN(CC)CC)c(I)c1 [amiodarone]
incidence of postoperative AF, patients ([2]; 1-week pre-operative oral regimen, placebo 53%): 25%
incidence of postoperative AF ([2]; amiodarone alone): 35%
incidence of postoperative AF ([2]; amiodarone with concomitant postoperative β-blockers): 16%
incidence of postoperative AF, patients ([2]; postoperative intravenous treatment, placebo 47%): 35%
incidence of postoperative AF, patients ([2]; treatment throughout the peri-operative period, placebo 25%): 16%

faster rate of binding to depolarized channels compared to phenytoin [3]: 5 fold
Molecule: NC(=O)N1c2ccccc2C=Cc2ccccc21 [carbamazepine]
lower affinity for depolarized channels compared to phenytoin [3]: 3 fold

Molecule: CCCCc1oc2ccc(NS(C)(=O)=O)cc2c1C(=O)c1ccc(OCCCN(CCCC)CCCC)cc1 [dronedarone, n-(2-butyl-3-(4-(3-dibutylaminopropoxy)-benzoyl)benzofuran-5-yl)-methanesulfonamide]
lowering of risk of AF relapse [4]: 25%

Molecule: CCOC(=O)[C@H](CCc1ccccc1)N[C@@H](C)C(=O)N1CCC[C@H]1C(=O)O [enalapril]
relative risk reduction for the development of AF (compared to placebo): 78%

Molecule: CCCCC1=NC2(CCCC2)C(=O)N1Cc1ccc(-c2ccccc2-c2nnn[nH]2)cc1 [irbesartan]
prevention of recurrence of AF (irbesartan plus amiodarone versus amiodarone alone): more effectively than amiodarone alone

Molecule: SNX-482
block of R-type calcium current (R-type calcium current; neurohypophysial nerve endings, 40 nM concentration): blocks
effect on R-type current (R-type calcium current; preparations of the neuronal cell body, retinal ganglion cells and hippocampal pyramidal cells): no significant effect
effect on K+ and Na+ currents, and L, P/Q and T-type calcium currents [5]: no effect
N-type calcium current blocked (N-type calcium current): 30-50%
